Assay results: patent US20250281495A1, “METHODS FOR INHIBITING INFLAMMATION AND PROGRESSION OF ATHEROSCLEROTIC PLAQUES AND CARDIOVASCULAR EVENTS IN PATIENTS WITH CEREBRO- AND CARDIO-VASCULAR DISEASE” (ICAHN SCHOOL OF MEDICINE AT MOUNT SINAI, priority 2021, published 2025)

System: kinase phosphorylation (pCREB, pp38, pMAPKA2P, pS6, pERK1/2) in PBMCs
Assay: CyTOF screening of candidate small molecules in healthy PBMCs stimulated with atherosclerotic plasma
Type: cell-based, human
Settings: for reversal of the inflammatory signature activated by atherosclerotic plasma: CyTOF screening
Procedure: To test the efficacy of candidate small molecules in reversing immune response of PBMCs to atherosclerotic plasma, the inventors examined cell type-specific pharmacologic effects of selected candidate compounds. Using healthy PBMCs, the inventors assessed the activity of selected small molecules in the presence of atherosclerotic plasma stimulation that followed 30 minutes of pretreatment with each candidate compounds. Using CyTOF mass-cytometry, the inventors measured the specific inhibition of kinase phosphorylation (i.e., pCREB, pp38, pMAPKA2P, pS6, pERK1/2) in each cell type at the single cell level for each drug (FIGS. 8 and 9).

[1] = CD16+ monocytes and CD1c+ DC, atherosclerotic plasma
[2] = CD14+ and CD16+ monocytes and CD1c+ DC (these cells)
[3] = CD14+ and CD16+ monocytes and CD1c+ DC, atherosclerotic plasma

Compound | p38 phosphorylation (CD1c+ DC, atherosclerotic plasma) | ERK1/2 phosphorylation [1] | reversal of the inflammatory signature activated by atherosclerotic plasma | phosphorylation of major kinases (e.g., CREB and S6) implicated in the inflammatory transcriptional reprogramming (atherosclerotic plasma) | ERK1/2 phosphorylation in response to atherosclerosis plasma [2] | p38 phosphorylation in response to atherosclerosis plasma [2] | CREB phosphorylation [3] | S6 phosphorylation [3] | MAPKA2P phosphorylation [1] | inhibition of most specific kinase phosphorylation activated by atherosclerosis plasma (cell-specificity for monocytes and CD1c+ DC, 30 minutes of pretreatment)
CC[C@H](C)C(=O)O[C@H]1CCC=C2C=C[C@H](C)[C@H](CC[C@@H]3C[C@@H](O)CC(=O)O3)[C@H]21 [Mevastatin] | inhibited | inhibited | did not fully reverse | did not affect |  |  |  |  |  | 
CS(=O)(=O)O.Cn1cc(C2=C(c3cn(CCCSC(=N)N)c4ccccc34)C(=O)NC2=O)c2ccccc21 [Ro 31-8220 mesylate] |  |  | reversed |  | not inhibited | not inhibited | significant inhibition | significant inhibition | significant inhibition | significant inhibition
